Measurements taken from ChEMBL document CHEMBL3808311, “Inhibitors of Renal Outer Medullary Potassium Channel” (ACS Med Chem Lett, 2016).

Molecular target: T1, ATP-sensitive inward rectifier potassium channel 1 (Homo sapiens, UniProt P48048)
T1 sequence (P48048 whole entry): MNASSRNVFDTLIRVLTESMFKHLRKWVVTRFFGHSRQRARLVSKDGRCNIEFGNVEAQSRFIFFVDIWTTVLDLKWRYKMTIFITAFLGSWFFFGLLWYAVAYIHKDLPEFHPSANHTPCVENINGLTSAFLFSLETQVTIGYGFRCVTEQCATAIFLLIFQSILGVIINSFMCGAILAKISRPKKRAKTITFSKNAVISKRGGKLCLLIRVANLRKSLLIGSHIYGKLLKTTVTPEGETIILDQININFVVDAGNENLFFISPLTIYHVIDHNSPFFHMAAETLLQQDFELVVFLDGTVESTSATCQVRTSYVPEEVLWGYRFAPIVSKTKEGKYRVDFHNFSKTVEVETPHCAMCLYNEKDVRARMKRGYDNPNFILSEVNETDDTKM
Assay: Inhibition of human Kir1.1 expressed in HEK293 cells after 30 mins by thallium flux assay
Type: cell-based

| SMILES | IC50 |
| --- | --- |
| CC1=C(N2CCC3(CCN(C[C@@H](O)c4cc5c(cc4Cl)Cn4nnnc4-5)CC3)C2=O)COC1=O | 9 nM |
| C[C@@H]1CC2(CCN(C[C@@H](O)c3ccc4c(c3)-c3nnnn3C4)CC2)C(=O)N1C1=CC(=O)OC1 | 7 nM |
| C[C@H]1CC2(CCN(C[C@@H](O)c3ccc4c(c3)-c3nnnn3C4)CC2)C(=O)N1C1=CC(=O)OC1 | 14 nM |
| CC1=C(N2CCC3(CCN(C[C@H](O)c4cc5c(cc4Cl)Cn4nnnc4-5)CC3)C2=O)COC1=O | 31 nM |
| C[C@H]1CC2(CCN(C[C@H](O)c3ccc4c(c3)-c3nnnn3C4)CC2)C(=O)N1C1=CC(=O)OC1 | 20 nM |

Further compounds by falling IC50, results first:

| IC50 | SMILES |
| --- | --- |
| 43 nM | CC1=C(N2CCC3(CCN(C[C@H](O)c4ccc5c(c4)-c4nnnn4C5)C[C@H]3F)C2=O)COC1=O (stereo partly specified) |
| 35 nM | CC1=C(N2CCC3(CCN(C[C@H](O)c4ccc5c(c4)-c4nnnn4C5)C[C@@H]3F)C2=O)COC1=O (stereo partly specified) |
| 32 nM | C[C@@H]1CC2(CCN(C[C@H](O)c3ccc4c(c3)-c3nnnn3C4)CC2)C(=O)N1C1=CC(=O)OC1 |
| 19 nM | CC1=C(N2CCC3(CCN(C[C@@H](O)c4ccc5c(c4)-c4nnnn4C5)CC3)C2=O)COC1=O |
| 17 nM | CC1=C(N2CCC3(CCN(C[C@H](O)c4cc5c(cc4C)Cn4nnnc4-5)CC3)C2=O)COC1=O |
| 11 nM | CC1=C(N2CCC3(CCN(C[C@H](O)c4ccc5c(c4)-c4nnnn4C5)CC3)C2=O)COC1=O |
